# Data taken from patent US9993449B2, “(S)-3-amino-4-(difluoromethylenyl)cyclopent-1-ene-1-carboxylic acid, and related compounds as GABA aminotransferase inactivators for the treatment of epilepsy, addiction and hepatocellular carcinoma” (NORTHWESTERN UNIVERSITY, priority 2015, dated 2018).
# Where a name gives a salt, the structure may show the parent alone.
# Experiments:
# [1] = molecular target: aspartate aminotransferase (Asp-AT); test: Inhibition of aspartate aminotransferase; type: biochemical; conditions: reversible inhibition
# Experimental: Inhibition of Aspartate Aminotransferase by 1. Microtiter plate wells were loaded with 90 μL of an assay mixture containing 100 mM potassium phosphate at pH 7.4, 5.55 mM α-ketoglutarate, 1.11 mM NADH, 5.55 mM L-aspartate, 11.1 units of malic dehydrogenase, and various concentrations of 1. After incubation of the mixture at room temperature for a few min, 10 μL of Asp-AT (3.0 units/mL in 100 mM potassium phosphate at pH 7.4) was added. The plate was shaken at room temperature for 1 min, and the absorbance was measured at 340 nm every 6 s for 90 min. All assays were performed in duplicate (FIG. 4).
# [2] = molecular target: alanine aminotransferase (Ala-AT); test: Inhibition of alanine aminotransferase; type: biochemical; conditions: reversible inhibition
# Text: Inhibition of Alanine Aminotransferase by 1. The assay was identical to that with aspartate aminotransferase except L-alanine was used as the substrate and lactate dehydrogenase was the enzyme (FIG. 5).
# [3] = molecular target: T1, CYP2B6 (Homo sapiens, UniProt P20813); test: CYP2B6 inhibition (HLM, bupropion substrate); type: in vitro ADME; conditions: 10 μM, 10 min at 37° C.
# T1 construct: tissue Eurofins Panlabs; host or cells: human liver microsomes
# T1 sequence (P20813 1-491): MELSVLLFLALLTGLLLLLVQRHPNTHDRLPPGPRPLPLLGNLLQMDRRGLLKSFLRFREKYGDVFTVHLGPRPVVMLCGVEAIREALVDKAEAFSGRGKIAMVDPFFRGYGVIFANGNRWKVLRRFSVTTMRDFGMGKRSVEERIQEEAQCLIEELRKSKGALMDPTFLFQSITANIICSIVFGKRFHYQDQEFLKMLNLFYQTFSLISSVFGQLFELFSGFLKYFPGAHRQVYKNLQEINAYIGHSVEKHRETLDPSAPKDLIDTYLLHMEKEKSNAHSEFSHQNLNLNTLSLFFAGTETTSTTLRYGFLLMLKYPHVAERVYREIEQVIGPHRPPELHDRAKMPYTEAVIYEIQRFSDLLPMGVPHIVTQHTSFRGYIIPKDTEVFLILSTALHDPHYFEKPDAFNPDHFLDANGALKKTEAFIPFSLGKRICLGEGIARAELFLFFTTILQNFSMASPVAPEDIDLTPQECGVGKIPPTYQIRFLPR
# Experimental: (§1) Inhibition of Microsomal Cytochromes P450. The experiments were performed by Eurofins Panlabs (Redmond, Wash. 98052, USA). CYP1A inhibition (HLM, phenacetin substrate), CYP2B6 inhibition (HLM, bupropion substrate), CYP2C8 inhibition (HLM, paclitaxel substrate), CYP2C9 inhibition (HLM, diclofenac substrate), CYP2C19 inhibition (HLM, omeprazole substrate), CYP2D6 inhibition (HLM, dextromethorphan substrate), and CYP3A inhibition (HLM, midazolam and testosterone substrates) were tested. The test concentration was 10 μM. The incubation time was 10 min at 37° C. The detection method was by HPLC-MS/MS. The experiments were duplicated, and the % inhibition of the control values was averaged (FIG. 8).
# [4] = molecular target: T2, CYP2C19 (Homo sapiens, UniProt P33261); test: CYP2C19 inhibition (HLM, omeprazole substrate); type: in vitro ADME; conditions: 10 μM, 10 min at 37° C.
# T2 construct: tissue Eurofins Panlabs; host or cells: human liver microsomes
# Experimental: as §1
# [5] = molecular target: T3, CYP2D6 (Homo sapiens, UniProt P10635); test: CYP2D6 inhibition (HLM, dextromethorphan substrate); type: in vitro ADME; conditions: 10 μM, 10 min at 37° C.
# T3 construct: tissue Eurofins Panlabs; host or cells: human liver microsomes
# Experimental: as §1
# [6] = tested on: CYP3A; test: CYP3A inhibition (HLM, midazolam and testosterone substrates); type: in vitro ADME, human; conditions: 10 μM, 10 min at 37° C.
# Experimental: as §1
# [7] = Metabolic stability in human liver microsomes (LC-MS/MS); type: in vitro ADME; conditions: for 90 min
# Experimental: This was accomplished by incubating 1 with the microsomes and monitoring its disappearance with time using LC-MS/MS. Terfenadine was run in similar condition as a positive control.
# [8] = tested on: striatal dopamine levels; test: MicroPET imaging with 11C-raclopride: cocaine- or nicotine-induced dopamine elevation in freely moving rats; type: in vivo, rat
# Experimental: Drug addiction results from the release of dopamine in the NAcc when an addictive substance is ingested. The effect of 1 on the release of dopamine in freely moving rats was determined using in vivo micropositron emission tomography (microPET) imaging (FIG. 10). (Dewey, S. L.; Morgan, A. E.; Ashby, C. R.; Horan, B.; Kushner, S. A.; Logan, J.; Volkow, N. D.; Fowler, J. S.; Gardner, E. L.; Brodie, J. D. Synapse 1998, 30 (2), 119-129). […] MicroPET was used to measure the dissociation of the tracer [^11C]-raclopride from dopamine receptors caused by either cocaine- or nicotine-induced increases in synaptic dopamine levels (the same images were obtained with cocaine and nicotine). When animals received cocaine (n=8) or nicotine (n=6), striatal dopamine levels were rapidly elevated. (Dewey, S. L.; Chaurasia, C. S.; Chen, C. E.; Volkow, N. D.; Clarkson, F. A.; Porter, S. P.; Straughter-Moore, R. M.; Alexoff, D. L.; Tedeschi, D.; Russo, N. B.; Fowler, J. S.; Brodie, J. D. Synapse 1997, 25 (4), 393-398). […] Therefore, 1 blocks both cocaine- and nicotine-induced elevations in dopamine.
# MicroPET imaging. Adult male rats (Sprague-Dawley, 200-250 grams, n =16) were obtained from Taconic Farms. Animals were maintained on a 12/12 light-dark cycle. Scanning was performed using a Siemen's Inveon. All emission scans were corrected for attenuation. Animals received baseline microPET scans using either ^11C-raclopride or ^18FDG as described previously. (Patel, V. D.; Lee, D. E.; Alexoff, D. L.; Dewey, S. L.; Schiffer, W. K. Neuroimage 2008, 41 (3), 1051-1066.) Uptake of both radiotracers occurred while animals were awake and freely moving. Immediately prior to microPET scanning, all animals were anesthetized and maintained under isoflurane.
# T3 sequence (P10635 whole entry): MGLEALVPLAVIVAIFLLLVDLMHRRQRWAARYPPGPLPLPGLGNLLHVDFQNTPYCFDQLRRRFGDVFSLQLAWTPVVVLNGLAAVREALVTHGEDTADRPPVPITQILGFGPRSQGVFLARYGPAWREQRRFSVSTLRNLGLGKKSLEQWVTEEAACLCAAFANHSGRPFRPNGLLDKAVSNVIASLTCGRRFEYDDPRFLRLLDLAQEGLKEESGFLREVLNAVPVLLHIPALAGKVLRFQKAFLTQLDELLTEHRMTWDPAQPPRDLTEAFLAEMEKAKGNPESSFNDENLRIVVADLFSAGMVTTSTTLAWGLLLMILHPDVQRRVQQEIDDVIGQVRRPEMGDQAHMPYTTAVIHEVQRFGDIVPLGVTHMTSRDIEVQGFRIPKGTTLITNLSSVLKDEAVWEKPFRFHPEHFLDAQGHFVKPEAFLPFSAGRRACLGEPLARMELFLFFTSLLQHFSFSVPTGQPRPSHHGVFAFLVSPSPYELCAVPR
# T2 sequence (P33261 whole entry): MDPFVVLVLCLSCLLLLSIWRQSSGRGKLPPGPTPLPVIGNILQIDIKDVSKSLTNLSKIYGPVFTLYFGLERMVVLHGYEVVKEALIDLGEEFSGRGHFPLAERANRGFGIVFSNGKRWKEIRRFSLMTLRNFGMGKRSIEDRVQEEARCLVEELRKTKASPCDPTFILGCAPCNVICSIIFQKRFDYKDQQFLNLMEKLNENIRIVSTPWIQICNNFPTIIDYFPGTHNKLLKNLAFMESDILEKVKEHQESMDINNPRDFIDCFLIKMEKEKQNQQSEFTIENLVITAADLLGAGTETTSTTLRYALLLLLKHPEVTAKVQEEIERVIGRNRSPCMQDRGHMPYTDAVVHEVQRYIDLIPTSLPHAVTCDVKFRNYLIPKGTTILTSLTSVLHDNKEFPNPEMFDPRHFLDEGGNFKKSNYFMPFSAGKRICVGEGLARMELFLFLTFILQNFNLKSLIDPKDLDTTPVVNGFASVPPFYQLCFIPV
smiles,measurement,setting,value
"N[C@H]1C=C(C(=O)O)CC1=C(F)F [Compound 1, (S)-3-Amino-4-(difluoromethylenyl)cyclopent-1-ene-1-carboxylic acid Hydrochloride]",IC50,[1],> 4 mM
same,IC50,[2],> 4 mM
same,inhibition or induction of CYP 2B6,[3],does not inhibit or induce
same,inhibition or induction of CYP 2C19,[4],does not inhibit or induce
same,inhibition or induction of CYP 2D6,[5],does not inhibit or induce
same,inhibition or induction of CYP 3A,[6],does not inhibit or induce
same,metabolic stability in HLM,[7],stable
same,"suppressing the release of dopamine in the NAcc following a cocaine or nicotine challenge, compared with CPP-115",[8],superior to CPP-115
same,cocaine-induced elevations in dopamine,"[8]; 1 given prior to cocaine, 11C-raclopride microPET",blocks
same,nicotine-induced elevations in dopamine,"[8]; 1 given prior to nicotine, 11C-raclopride microPET",blocks
